Values of other authors in patent publication US11058735B2, “Formulations containing pomegranate seed oil, rosa canina fruit oil and inula viscosa oleoresin or extract” (POMEGA, INC., priority 2014, dated 2021).

Conditions: compared with grape seed extract, background statement

Structure (SMILES): CCCC\C=C/C=C/C=C\CCCCCCCC(=O)O [Punicic acid]
- antioxidant power relative to grape seed extract: approximately 10 times
